In article PMC11998009, “Identification of a New FtsZ Inhibitor by Virtual Screening, Mechanistic Insights, and Structure–Activity Relationship Analyses” (ACS Infectious Diseases, 2025):
≈ marks a conversion by molar mass, not a printed value.

Assays:
S. aureus TD276 = assay: MIC against the FtsZ-mCherry strain; type: cell-based; settings: Staphylococcus aureus
S. aureus ATCC25923 [1] = assay: Time-killing curve; type: cell-based
Protocol: (§1) page 19: […] MIC method. […] The cultures were incubated at 37°C, and aliquots were […] Serial dilutions were spread on LB solid medium and the plates were incubated at 37°C O/N. Then, the number of colonies was determined. Killing curves were constructed by plotting the log10 CFU/ml vs. time. Bactericidal activity was defined as a reduction of 99.9% (≥3 log 10) of the total number of CFU/ml in the original inoculum (NCCLS, 1999). Bacteriostatic activity was defined as maintenance of the original inoculum concentration or a reduction of less than 99.9% (<3 log10) of the total number of CFU/ml in the original inoculum. Live cell imaging experiments […] Cells were diluted to OD of 0.02 in fresh TSB containing in the case of strain TD276 anhydrotetracycline 0.4 μM to induce the expression of mCherryFtsZ. After 1 hour of incubation at 37°C 2 μl of the culture was spotted onto an agar pad prepared with TSB and […] For time-lapse microscopy experiments, an inverted widefield microscope (Leica DMi8S) equipped with a 100× oil immersion objective (HC PL FLUOTAR 100x/1.32 OIL) was used. […] Images were recorded at 15-min intervals and up to 5 h. Bacteria were visualized in phase- contrast and fluorescence with the required parameters. […] S. aureus […] in fluorescence (with the required parameters for Hoechst and mCherry) using a 160x objective (HC PL APO S19

S. aureus ATCC25923 [2] = assay: Single-cell time-lapse microscopy, cell area; type: cell-based; settings: 2 × MIC (4 μg/mL), 5 h
Protocol: as §1

[3] = test system: S. aureus ATCC25923 biofilms; assay: Biofilm eradication assay (CFU counting, CLSM); type: cell-based
G. mellonella = assay: Toxicity in uninfected G. mellonella larvae; type: in vivo, Galleria mellonella; settings: 40 mg/kg
FtsZPa = biological target: T1, FtsZPa (Pseudomonas aeruginosa, UniProt P47204); assay: FtsZPa polymerization assay
T1 sequence (P47204 1-394): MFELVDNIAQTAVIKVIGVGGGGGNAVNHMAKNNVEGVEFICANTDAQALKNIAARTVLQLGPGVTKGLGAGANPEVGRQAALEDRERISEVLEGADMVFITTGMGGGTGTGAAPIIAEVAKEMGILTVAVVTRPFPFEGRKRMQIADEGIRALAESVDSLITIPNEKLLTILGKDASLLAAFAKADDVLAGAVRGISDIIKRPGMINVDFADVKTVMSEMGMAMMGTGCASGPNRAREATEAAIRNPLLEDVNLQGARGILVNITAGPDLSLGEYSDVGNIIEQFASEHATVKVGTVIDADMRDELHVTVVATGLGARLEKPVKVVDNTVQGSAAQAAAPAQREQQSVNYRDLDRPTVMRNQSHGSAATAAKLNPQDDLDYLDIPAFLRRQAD

[4] = MTT cell viability assay on A549; settings: human, A549 cells
[5] = test system: A549 pulmonary epithelial cells; assay: MTT cell viability assay on A549; settings: A549, 25 μM, 24 h
FtsZSa [6] = biological target: T2, FtsZSa (Staphylococcus aureus, UniProt P0A031); assay: FtsZSa polymerization, sedimentation assay; settings: sedimentation assay, 100 μM
T2 sequence (P0A031 1-390): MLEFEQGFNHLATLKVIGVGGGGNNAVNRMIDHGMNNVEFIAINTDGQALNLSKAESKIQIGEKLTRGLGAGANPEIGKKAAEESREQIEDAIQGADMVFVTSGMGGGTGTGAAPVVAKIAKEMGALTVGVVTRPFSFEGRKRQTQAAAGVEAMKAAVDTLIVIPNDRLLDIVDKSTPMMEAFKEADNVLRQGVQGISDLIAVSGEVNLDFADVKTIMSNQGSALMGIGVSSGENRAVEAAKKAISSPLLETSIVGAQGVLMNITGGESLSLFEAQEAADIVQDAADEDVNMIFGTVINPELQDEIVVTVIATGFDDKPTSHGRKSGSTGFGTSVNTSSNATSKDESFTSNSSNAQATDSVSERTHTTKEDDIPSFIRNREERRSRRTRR

FtsZSa [7] = biological target: T2, FtsZSa; assay: FtsZSa polymerization, 90° light scattering

COc1ccc(Cc2nnc(SC3=CS(=O)(=O)c4ccccc43)o2)cc1 [C11]
MIC (S. aureus TD276): 2 µg/mL (≈ 5.18 µM) | Time-kill effect (S. aureus ATCC25923 [1]; 1- or 2-fold the MIC, 24 h): Bacteriostatic effect | Time-kill effect (S. aureus ATCC25923 [1]; half of the MIC): slight regrowth | Area of the cells compared to untreated cells (S. aureus ATCC25923 [2]): significantly larger | Biofilm eradication, viable cells by CFU counting ([3]; 2 × MIC, 4 μg/mL, 24 h treatment): reduce the number of viable cells | Biofilm eradication by CLSM ([3]; increasing concentrations (4, 8, 16 μg/ml)): eradicating the majority of the attached cells | Toxicity for G. mellonella (survival of not infected, treated larvae) (G. mellonella): not toxic | IC50 (FtsZPa): 34 µM | viability at 6 h, 25 µM [4]: > 90% | Percentage of live cells (MTT) [5]: higher than 70% | Effect on FtsZSa polymers formation (FtsZSa [6]): inhibitory effect on FtsZSa polymerization | IC50 (FtsZSa [7]): 48 µM
